Laboratory results taken from PubChem BioAssay (NCI).
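Where inhibition never reached the appropriate level, the endpoint shown equals the highest concentration tested. Otherwise, values were interpolated linearly from a five-concentration, 48-hour dose response in 96-well plates. GI50 marks 50% less growth. TGI denotes the concentration required for complete inhibition of growth.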

Columns and labels:
Assay in all cases: growth of human tumour cells (NCI), 48 h
HCT-15 colon = system: HCT-15 colon
NCI-H23 lung = system: NCI-H23 lung
COLO 205 colon = system: COLO 205 colon
MDA-MB-231 breast = system: MDA-MB-231 breast
SW-620 colon = system: SW-620 colon
LOX IMVI melanoma = system: LOX IMVI melanoma
CCRF-CEM leukemia = system: CCRF-CEM leukemia
SR leukemia = system: SR leukemia
SF-539 CNS = system: SF-539 CNS
MDA-MB-435 = system: MDA-MB-435
UACC-257 melanoma = system: UACC-257 melanoma
RPMI-8226 leukemia = system: RPMI-8226 leukemia
KM12 colon = system: KM12 colon
HT29 colon = system: HT29 colon
OVCAR-8 ovarian = system: OVCAR-8 ovarian
K-562 leukemia = system: K-562 leukemia
HS 578T breast = system: HS 578T breast
M14 melanoma = system: M14 melanoma
OVCAR-5 ovarian = system: OVCAR-5 ovarian
MALME-3M melanoma = system: MALME-3M melanoma
SK-MEL-5 melanoma = system: SK-MEL-5 melanoma
UACC-62 melanoma = system: UACC-62 melanoma
PC-3 prostate = system: PC-3 prostate
MCF7 breast = system: MCF7 breast
T-47D breast = system: T-47D breast
SN12C renal = system: SN12C renal
HCC-2998 colon = system: HCC-2998 colon
DU-145 prostate = system: DU-145 prostate
HL-60(TB) leukemia = system: HL-60(TB) leukemia
SK-MEL-2 melanoma = system: SK-MEL-2 melanoma
MOLT-4 leukemia = system: MOLT-4 leukemia
NCI-H226 lung = system: NCI-H226 lung
HCT-116 colon = system: HCT-116 colon
NCI-H522 lung = system: NCI-H522 lung
OVCAR-3 ovarian = system: OVCAR-3 ovarian
HOP-92 NSCLC = system: HOP-92 NSCLC
SNB-19 CNS = system: SNB-19 CNS
SNB-75 CNS = system: SNB-75 CNS
CAKI-1 renal = system: CAKI-1 renal
IGROV1 ovarian = system: IGROV1 ovarian
SF-268 CNS = system: SF-268 CNS
BT-549 breast = system: BT-549 breast
786-0 renal = system: 786-0 renal
A498 renal = system: A498 renal
EKVX NSCLC = system: EKVX NSCLC
NCI/ADR-RES ovarian = system: NCI/ADR-RES ovarian
ACHN renal = system: ACHN renal
TK-10 renal = system: TK-10 renal
SF-295 CNS = system: SF-295 CNS
SK-MEL-28 melanoma = system: SK-MEL-28 melanoma
NCI-H460 lung = system: NCI-H460 lung
HOP-62 NSCLC = system: HOP-62 NSCLC
UO-31 renal = system: UO-31 renal
A549 NSCLC = system: A549 NSCLC
OVCAR-4 ovarian = system: OVCAR-4 ovarian
SK-OV-3 ovarian = system: SK-OV-3 ovarian
U251 CNS = system: U251 CNS
RXF 393 renal = system: RXF 393 renal

Structure (SMILES): COc1cc2c3c(n(CCCN4CCCCC4)c(=O)c2cc1OC)-c1cc2c(cc1C3=O)OCO2
- GI50 (HCT-15 colon): 1260 nM
- TGI (HCT-15 colon): 2600 nM
- GI50 (NCI-H23 lung): 1530 nM
- TGI (NCI-H23 lung): 3010 nM
- GI50 (COLO 205 colon): 1110 nM
- TGI (COLO 205 colon): 2430 nM
- GI50 (MDA-MB-231 breast): 1210 nM
- TGI (MDA-MB-231 breast): 2590 nM
- GI50 (SW-620 colon): 193 nM
- TGI (SW-620 colon): 1350 nM
- GI50 (LOX IMVI melanoma): 716 nM
- TGI (LOX IMVI melanoma): 2150 nM
- GI50 (CCRF-CEM leukemia): 130 nM
- TGI (CCRF-CEM leukemia): 988 nM
- GI50 (SR leukemia): 143 nM
- TGI (SR leukemia): 893 nM
- GI50 (SF-539 CNS): 1460 nM
- TGI (SF-539 CNS): 2830 nM
- GI50 (MDA-MB-435): 1660 nM
- TGI (MDA-MB-435): 3220 nM
- GI50 (UACC-257 melanoma): 1760 nM
- TGI (UACC-257 melanoma): 3960 nM
- GI50 (RPMI-8226 leukemia): 333 nM
- TGI (RPMI-8226 leukemia): 1470 nM
- GI50 (KM12 colon): 1510 nM
- TGI (KM12 colon): 2850 nM
- GI50 (HT29 colon): 1280 nM
- TGI (HT29 colon): 2670 nM
- GI50 (OVCAR-8 ovarian): 1680 nM
- TGI (OVCAR-8 ovarian): 4170 nM
- GI50 (K-562 leukemia): 179 nM
- TGI (K-562 leukemia): 499 nM
- GI50 (HS 578T breast): 2070 nM
- TGI (HS 578T breast): 4770 nM
- GI50 (M14 melanoma): 1590 nM
- TGI (M14 melanoma): 3050 nM
- GI50 (OVCAR-5 ovarian): 1840 nM
- TGI (OVCAR-5 ovarian): 3290 nM
- GI50 (MALME-3M melanoma): 1650 nM
- TGI (MALME-3M melanoma): 3450 nM
- GI50 (SK-MEL-5 melanoma): 1600 nM
- TGI (SK-MEL-5 melanoma): 3010 nM
- GI50 (UACC-62 melanoma): 1380 nM
- TGI (UACC-62 melanoma): 2830 nM
- GI50 (PC-3 prostate): 1260 nM
- TGI (PC-3 prostate): 2690 nM
- GI50 (MCF7 breast): 145 nM
- TGI (MCF7 breast): 2050 nM
- GI50 (T-47D breast): 1580 nM
- TGI (T-47D breast): 3560 nM
- GI50 (SN12C renal): 1590 nM
- TGI (SN12C renal): 3050 nM
- GI50 (HCC-2998 colon): 1220 nM
- TGI (HCC-2998 colon): 2470 nM
- GI50 (DU-145 prostate): 1370 nM
- TGI (DU-145 prostate): 2680 nM
- GI50 (HL-60(TB) leukemia): 341 nM
- TGI (HL-60(TB) leukemia): 965 nM
- GI50 (SK-MEL-2 melanoma): 12400 nM
- TGI (SK-MEL-2 melanoma): 28300 nM
- GI50 (MOLT-4 leukemia): 42.3 nM
- TGI (MOLT-4 leukemia): 2020 nM
- GI50 (NCI-H226 lung): 1540 nM
- TGI (NCI-H226 lung): 3690 nM
- GI50 (HCT-116 colon): 150 nM
- TGI (HCT-116 colon): 309 nM
- GI50 (NCI-H522 lung): 932 nM
- TGI (NCI-H522 lung): 2460 nM
- GI50 (OVCAR-3 ovarian): 1630 nM
- TGI (OVCAR-3 ovarian): 3020 nM

Structure (SMILES): NC(=O)c1cccc(-n2ccc3cc(NC(=O)Nc4ccc(N5CCOCC5)c(C(F)(F)F)c4)ccc32)n1
- GI50 (HCT-15 colon): 1590 nM
- TGI (HCT-15 colon): 6610 nM
- GI50 (COLO 205 colon): 2060 nM
- TGI (COLO 205 colon): 5510 nM
- GI50 (MDA-MB-231 breast): 2560 nM
- TGI (MDA-MB-231 breast): 7960 nM
- GI50 (HOP-92 NSCLC): 2100 nM
- TGI (HOP-92 NSCLC): 4820 nM
- GI50 (SNB-19 CNS): 1860 nM
- TGI (SNB-19 CNS): 6550 nM
- GI50 (SNB-75 CNS): 690 nM
- TGI (SNB-75 CNS): 4010 nM
- GI50 (SW-620 colon): 2870 nM
- TGI (SW-620 colon): > 100000 nM
- GI50 (CCRF-CEM leukemia): 741 nM
- TGI (CCRF-CEM leukemia): 4740 nM
- GI50 (CAKI-1 renal): 1900 nM
- TGI (CAKI-1 renal): 9410 nM
- GI50 (SF-539 CNS): 616 nM
- TGI (SF-539 CNS): 2790 nM
- GI50 (IGROV1 ovarian): 2250 nM
- TGI (IGROV1 ovarian): 6940 nM
- GI50 (MDA-MB-435): 2030 nM
- TGI (MDA-MB-435): 7190 nM
- GI50 (UACC-257 melanoma): 2900 nM
- TGI (UACC-257 melanoma): 9040 nM
- GI50 (RPMI-8226 leukemia): 505 nM
- TGI (RPMI-8226 leukemia): 2290 nM
- GI50 (SF-268 CNS): 2670 nM
- TGI (SF-268 CNS): 8940 nM
- GI50 (BT-549 breast): 1790 nM
- TGI (BT-549 breast): 5040 nM
- GI50 (KM12 colon): 397 nM
- TGI (KM12 colon): 4410 nM
- GI50 (HT29 colon): 2340 nM
- TGI (HT29 colon): > 100000 nM
- GI50 (OVCAR-8 ovarian): 1480 nM
- TGI (OVCAR-8 ovarian): 8380 nM
- GI50 (K-562 leukemia): 946 nM
- TGI (K-562 leukemia): > 100000 nM
- GI50 (786-0 renal): 670 nM
- TGI (786-0 renal): 40600 nM
- GI50 (A498 renal): 2010 nM
- TGI (A498 renal): 7320 nM
- GI50 (HS 578T breast): 835 nM
- TGI (HS 578T breast): 4830 nM
- GI50 (EKVX NSCLC): 2900 nM
- TGI (EKVX NSCLC): > 100000 nM
- GI50 (M14 melanoma): 2250 nM
- TGI (M14 melanoma): 6910 nM
- GI50 (OVCAR-5 ovarian): 2950 nM
- TGI (OVCAR-5 ovarian): > 100000 nM
- GI50 (MALME-3M melanoma): 1590 nM
- TGI (MALME-3M melanoma): 4340 nM
- GI50 (SK-MEL-5 melanoma): 1510 nM
- TGI (SK-MEL-5 melanoma): 3470 nM
- GI50 (UACC-62 melanoma): 1650 nM
- TGI (UACC-62 melanoma): 4140 nM
- GI50 (NCI/ADR-RES ovarian): 2650 nM
- TGI (NCI/ADR-RES ovarian): 35400 nM
- GI50 (PC-3 prostate): 1670 nM
- TGI (PC-3 prostate): 6200 nM
- GI50 (ACHN renal): 2700 nM
- TGI (ACHN renal): 8590 nM
- GI50 (MCF7 breast): 124 nM
- TGI (MCF7 breast): 3160 nM
- GI50 (T-47D breast): 463 nM
- TGI (T-47D breast): 3020 nM
- GI50 (TK-10 renal): 2750 nM
- TGI (TK-10 renal): 8290 nM
- GI50 (SF-295 CNS): 419 nM
- TGI (SF-295 CNS): 2310 nM
- GI50 (SK-MEL-28 melanoma): 2040 nM
- TGI (SK-MEL-28 melanoma): 8830 nM
- GI50 (SN12C renal): 2190 nM
- TGI (SN12C renal): 7360 nM
- GI50 (NCI-H460 lung): 2220 nM
- TGI (NCI-H460 lung): 6510 nM
- GI50 (HOP-62 NSCLC): 1500 nM
- TGI (HOP-62 NSCLC): 4100 nM
- GI50 (UO-31 renal): 1840 nM
- TGI (UO-31 renal): 5210 nM
- GI50 (A549 NSCLC): 2640 nM
- TGI (A549 NSCLC): > 100000 nM
- GI50 (HCC-2998 colon): 3150 nM
- GI50 (OVCAR-4 ovarian): 2250 nM
- TGI (OVCAR-4 ovarian): 7090 nM
- GI50 (DU-145 prostate): 3010 nM
- TGI (DU-145 prostate): > 100000 nM
- GI50 (HL-60(TB) leukemia): 2050 nM
- TGI (HL-60(TB) leukemia): 7500 nM
- GI50 (SK-MEL-2 melanoma): 2110 nM
- TGI (SK-MEL-2 melanoma): 5090 nM
- GI50 (SK-OV-3 ovarian): 2730 nM
- TGI (SK-OV-3 ovarian): 8950 nM
- GI50 (MOLT-4 leukemia): 1650 nM
- TGI (MOLT-4 leukemia): 9010 nM
- GI50 (U251 CNS): 1250 nM
- TGI (U251 CNS): 12100 nM
- GI50 (RXF 393 renal): 245 nM
- TGI (RXF 393 renal): 743 nM
- GI50 (NCI-H226 lung): 1740 nM
- TGI (NCI-H226 lung): 6600 nM
- GI50 (HCT-116 colon): 1910 nM
- TGI (HCT-116 colon): 8570 nM
- GI50 (NCI-H522 lung): 2070 nM
- TGI (NCI-H522 lung): 7820 nM
- GI50 (OVCAR-3 ovarian): 1990 nM
- TGI (OVCAR-3 ovarian): 5370 nM
